Assay results published in ChEMBL document CHEMBL1142171, “Identification and structural characterization of I84C and I84A mutations that are associated with high-level resistance to human immunodeficiency virus protease inhibitors and impair viral replication” (2007).

Experiments:
Type in all cases: functional, HEK293
[1] = tested on: Human immunodeficiency virus 1; assay: Antiviral activity against HIV1 A8 isolate with protease I84A mutation in HEK 293 cells relative to wild type
[2] = tested on: Human immunodeficiency virus 1; assay: Antiviral activity against HIV1 A1 isolate with protease I84A mutation in HEK 293 cells relative to wild type
[3] = tested on: Human immunodeficiency virus 1; assay: Antiviral activity against HIV1 A2 isolate with protease I84A mutation in HEK 293 cells relative to wild type
[4] = tested on: Human immunodeficiency virus 1; assay: Antiviral activity against HIV1 A3 isolate with protease I84A mutation in HEK 293 cells relative to wild type
[5] = tested on: Human immunodeficiency virus 1; assay: Antiviral activity against HIV1 A4 isolate with protease I84A mutation in HEK 293 cells relative to wild type
[6] = tested on: Human immunodeficiency virus 1; assay: Antiviral activity against HIV1 A5 isolate with protease I84A mutation in HEK 293 cells relative to wild type
[7] = tested on: Human immunodeficiency virus 1; assay: Antiviral activity against HIV1 A6 isolate with protease I84A mutation in HEK 293 cells relative to wild type
[8] = tested on: Human immunodeficiency virus 1; assay: Antiviral activity against HIV1 A7 isolate with protease I84A mutation in HEK 293 cells relative to wild type
[9] = tested on: Human immunodeficiency virus 1; assay: Antiviral activity against HIV1 A9 isolate with protease I84A mutation in HEK 293 cells relative to wild type
[10] = tested on: Human immunodeficiency virus 1; assay: Antiviral activity against HIV1 A10 isolate with protease I84A mutation in HEK 293 cells relative to wild type
[11] = tested on: Human immunodeficiency virus 1; assay: Antiviral activity against HIV1 A11 isolate with protease I84A mutation in HEK 293 cells relative to wild type
[12] = tested on: Human immunodeficiency virus 1; assay: Antiviral activity against HIV1 A12 isolate with protease I84A mutation in HEK 293 cells relative to wild type
[13] = tested on: Human immunodeficiency virus 1; assay: Antiviral activity against HIV1 A13 isolate with protease I84A mutation in HEK 293 cells relative to wild type
[14] = tested on: Human immunodeficiency virus 1; assay: Antiviral activity against HIV1 A14 isolate with protease I84A mutation in HEK 293 cells relative to wild type
[15] = tested on: Human immunodeficiency virus 1; assay: Antiviral activity against HIV1 A15 isolate with protease I84A mutation in HEK 293 cells relative to wild type
[16] = tested on: Human immunodeficiency virus 1; assay: Antiviral activity against HIV1 C1 isolate with protease I84C mutation in HEK 293 cells relative to wild type
[17] = tested on: Human immunodeficiency virus 1; assay: Antiviral activity against HIV1 C2 isolate with protease I84C mutation in HEK 293 cells relative to wild type
[18] = tested on: Human immunodeficiency virus 1; assay: Antiviral activity against HIV1 C3 isolate with protease I84C mutation in HEK 293 cells relative to wild type
[19] = tested on: Human immunodeficiency virus 1; assay: Antiviral activity against HIV1 C4 isolate with protease I84C mutation in HEK 293 cells relative to wild type
[20] = tested on: Human immunodeficiency virus 1; assay: Antiviral activity against HIV1 C5 isolate with protease I84C mutation in HEK 293 cells relative to wild type
[21] = tested on: Human immunodeficiency virus 1; assay: Antiviral activity against HIV1 C6 isolate with protease I84C mutation in HEK 293 cells relative to wild type
[22] = tested on: Human immunodeficiency virus 1; assay: Antiviral activity against HIV1 C7 isolate with protease I84C mutation in HEK 293 cells relative to wild type
[23] = tested on: Human immunodeficiency virus 1; assay: Antiviral activity against HIV1 C8 isolate with protease I84C mutation in HEK 293 cells relative to wild type
[24] = tested on: Human immunodeficiency virus 1; assay: Antiviral activity against HIV1 C10 isolate with protease I84C mutation in HEK 293 cells relative to wild type
[25] = tested on: Human immunodeficiency virus 1; assay: Resistance to HIV1 with protease 46I, 54V and I84V mutation in HEK 293 cells relative to similar background
[26] = tested on: Human immunodeficiency virus 1; assay: Resistance to HIV1 with protease 46M, 54I and I84V mutation in HEK 293 cells relative to similar background
[27] = tested on: Human immunodeficiency virus 1; assay: Resistance to HIV1 with protease 46M, 54I and I84C mutation in HEK 293 cells relative to similar background
[28] = tested on: Human immunodeficiency virus 1; assay: Resistance to HIV1 with protease 46I, 54I and I84V mutation in HEK 293 cells relative to similar background
[29] = tested on: Human immunodeficiency virus 1; assay: Resistance to HIV1 with protease 46I, 54I and I84A mutation in HEK 293 cells relative to similar background
[30] = tested on: Human immunodeficiency virus 1; assay: Resistance to HIV1 with protease 46I/L, 54I and I84C mutation in HEK 293 cells relative to similar background
[31] = tested on: Human immunodeficiency virus 1; assay: Resistance to HIV1 with protease 46I, 54M/V and I84A mutation in HEK 293 relative to similar background
[32] = tested on: Human immunodeficiency virus 1; assay: Antiviral activity against HIV1 C9 isolate with protease I84C mutation in HEK 293 cells relative to wild type
[33] = tested on: Human immunodeficiency virus 1; assay: Antiviral activity against HIV1 C11 isolate with protease I84C mutation in HEK 293 cells relative to wild type

| Compound | Fold change [1] | Fold change [2] | Fold change [4] | Fold change [5] | Fold change [6] | Fold change [7] | Fold change [8] | Fold change [9] | Fold change [10] | Fold change [11] | Fold change [12] | Fold change [13] | Fold change [14] | Fold change [15] | Fold change [16] | Fold change [18] | Fold change [19] | Fold change [20] | Fold change [21] | Fold change [24] | other results |
| --- | --- | --- | --- | --- | --- | --- | --- | --- | --- | --- | --- | --- | --- | --- | --- | --- | --- | --- | --- | --- | --- |
| CC(C)(C)NC(=O)[C@@H]1C[C@@H]2CCCC[C@@H]2CN1C[C@@H](O)[C@H](Cc1ccccc1)NC(=O)[C@H](CC(N)=O)NC(=O)c1ccc2ccccc2n1 | 265.5 | 1000 | 365 | 241 | 256 | 24 | 1000 | 1000 | 1000 | 1000 | 1000 | 1000 | 69 | 1000 | 6.1 | 56 | 92 | 41 | 24 | 242 | Fold change [3]: 141; Fold change [17]: 14; Fold change [22]: 1000; Fold change [23]: 68; Fold change [25]: 20; Fold change [26]: 4.3; Fold change [27]: 56; Fold change [28]: 4.3; Fold change [29]: 261; Fold change [30]: 80; Fold change [31]: >1000 |
| CC(C)CN(C[C@@H](O)[C@H](Cc1ccccc1)NC(=O)O[C@H]1CCOC1)S(=O)(=O)c1ccc(N)cc1 | 252 | 32 | 43 | 32 | 28 | 21 | 74 | 33 | 400 | 47 | 400 | 43 | 141 | 30 | 1.7 | 8.6 | 10 | 20 | 64 | 53 | Fold change [3]: 31; Fold change [17]: 5.4; Fold change [22]: 23; Fold change [23]: 12; Fold change [32]: 30; Fold change [33]: 18; Fold change [25]: 36; Fold change [26]: 4; Fold change [27]: 8.6; Fold change [28]: 9; Fold change [29]: 33; Fold change [30]: 21; Fold change [31]: 74 |
| CC(C)(C)NC(=O)[C@@H]1CN(Cc2cccnc2)CCN1C[C@@H](O)C[C@@H](Cc1ccccc1)C(=O)N[C@H]1c2ccccc2C[C@H]1O.O | 400 | 73 | 78 | 58 | 53 | 38 | 92 | 138 | 400 | 73 | 400 | 178 | 152 | 118 | 1.2 | 4.1 | 11 | 3.8 | 63 | 5.5 | Fold change [3]: 27; Fold change [17]: 1.3; Fold change [22]: 42; Fold change [23]: 6.4; Fold change [32]: 5.5; Fold change [33]: 5.7; Fold change [25]: 19; Fold change [26]: 2.4; Fold change [27]: 4.1; Fold change [28]: 9.1; Fold change [29]: 73; Fold change [30]: 8.6; Fold change [31]: 178 |
| Cc1c(O)cccc1C(=O)N[C@@H](CSc1ccccc1)[C@H](O)CN1C[C@H]2CCCC[C@H]2C[C@H]1C(=O)NC(C)(C)C | 600 | 600 | 600 | 600 | 600 | 64 | 600 | 600 | 600 | 600 | 600 | 196 | 210 | 600 | 15 | 74 | 395 | 51 | 144 | 286 | Fold change [3]: 600; Fold change [17]: 59; Fold change [22]: 600; Fold change [23]: 86; Fold change [32]: 70; Fold change [33]: 91; Fold change [25]: 16; Fold change [26]: 4; Fold change [27]: 74; Fold change [28]: 9; Fold change [29]: >600; Fold change [30]: 115; Fold change [31]: >600 |
| COC(=O)N[C@H](C(=O)N[C@@H](Cc1ccccc1)[C@@H](O)CN(Cc1ccc(-c2ccccn2)cc1)NC(=O)[C@@H](NC(=O)OC)C(C)(C)C)C(C)(C)C [ATAZANAVIR] | – | 38 | – | – | – | – | – | 52 | 700 | 63 | 25 | 700 | 21 | 253 | – | – | – | – | – | 19 | Fold change [32]: 9.1; Fold change [33]: 5 |
| Cc1cccc(C)c1OCC(=O)N[C@@H](Cc1ccccc1)[C@@H](O)C[C@H](Cc1ccccc1)NC(=O)[C@H](C(C)C)N1CCCNC1=O [LOPINAVIR] | 94 | 10 | 11 | 14 | 9 | 14 | 124 | 16 | 59 | 14 | 210 | 50 | 104 | 75 | 0.4 | 1.6 | 3.1 | 3.1 | 47 | 5.1 | Fold change [22]: 7.2; Fold change [23]: 2.9; Fold change [32]: 2.3; Fold change [33]: 2.8; Fold change [25]: 80; Fold change [26]: 2.8; Fold change [27]: 2.2; Fold change [28]: 8.9; Fold change [29]: 14; Fold change [30]: 3.1; Fold change [31]: 75 |
| CC(C)c1nc(CN(C)C(=O)N[C@H](C(=O)N[C@@H](Cc2ccccc2)C[C@H](O)[C@H](Cc2ccccc2)NC(=O)OCc2cncs2)C(C)C)cs1 [RITONAVIR] | 86 | 60 | 76 | 42 | 54 | 34 | 141 | 167 | 400 | 73 | 400 | 400 | 105 | 400 | 1.6 | 10 | 9.1 | 15 | 22 | 29 | Fold change [3]: 85; Fold change [17]: 8.6; Fold change [22]: 60; Fold change [23]: 14; Fold change [32]: 20; Fold change [33]: 15; Fold change [25]: 49; Fold change [26]: 6.7; Fold change [27]: 10; Fold change [28]: 11; Fold change [29]: 74; Fold change [30]: 18; Fold change [31]: >400 |
